Drawing on patent US9422293B2 (priority 2006, dated 2016), this text covers IC50 for 27 compounds.

Structures are written as SMILES. Where a name gives a salt, the structure may show the parent alone. Where only a bound is given, the exact number is not on record here.

The target of the assay is rat TRPV1 (Rattus norvegicus (Rat), UniProt O35433). The settings on record: read-out: Rat IC50.
rat TRPV1, sequence (O35433 whole entry): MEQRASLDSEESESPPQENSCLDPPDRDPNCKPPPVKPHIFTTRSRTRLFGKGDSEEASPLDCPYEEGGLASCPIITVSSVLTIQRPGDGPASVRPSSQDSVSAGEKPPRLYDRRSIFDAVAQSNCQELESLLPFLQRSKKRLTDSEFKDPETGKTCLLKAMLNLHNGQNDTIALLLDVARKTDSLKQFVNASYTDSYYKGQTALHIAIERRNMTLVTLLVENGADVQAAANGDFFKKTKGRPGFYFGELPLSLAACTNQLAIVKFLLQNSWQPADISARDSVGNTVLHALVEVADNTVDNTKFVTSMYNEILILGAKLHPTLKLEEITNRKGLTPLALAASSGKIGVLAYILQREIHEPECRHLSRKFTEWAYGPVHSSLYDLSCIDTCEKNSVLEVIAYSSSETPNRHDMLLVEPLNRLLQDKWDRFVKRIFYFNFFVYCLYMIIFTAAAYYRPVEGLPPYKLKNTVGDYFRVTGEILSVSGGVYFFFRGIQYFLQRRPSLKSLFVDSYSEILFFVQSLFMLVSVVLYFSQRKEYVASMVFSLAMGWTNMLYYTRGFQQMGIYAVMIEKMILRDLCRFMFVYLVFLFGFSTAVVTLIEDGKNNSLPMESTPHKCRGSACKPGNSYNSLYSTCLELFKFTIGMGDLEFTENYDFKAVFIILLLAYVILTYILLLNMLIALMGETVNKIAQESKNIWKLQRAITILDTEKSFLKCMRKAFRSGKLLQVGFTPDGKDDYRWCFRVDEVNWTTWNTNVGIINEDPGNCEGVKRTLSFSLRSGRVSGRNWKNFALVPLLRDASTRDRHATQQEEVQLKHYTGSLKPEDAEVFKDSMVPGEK
Method: Biological Testing: Functional Assay: Block of Capsaicin-Induced Ca^2+ Influx A. Human Assay
Cells were passaged frequently, every 3-5 days, to avoid overgrowth, depletion of essential medium components, or acidic medium exposure. Cells were passaged using a brief wash in 0.05% trypsin with 1 mM EDTA, followed by dissociation in divalent-free phosphate-buffered saline (Hyclone #SH30028.02). […] The assay buffer was composed of 130 mM NaCl, 2 mM KCl, 2 mM MgCl2, 10 mM HEPES, 5 mM glucose, and either 2 mM or 20 μM CaCl2. On the day of the experiment, the culture medium was replaced with 2 mM calcium assay buffer using an automated plate washer (ELx405; Biotek, VT). […] After loading the cells, the dye solution was replaced with 50 μL/well of 20 μM calcium assay buffer using the ELx405 plate washer. Test compounds (50 μL/well) were added to the plate and incubated for 30 min. […] The IC50 values were determined. […] The contents of the wells were mixed 3 times (40 μL mix volume) immediately after the additions were made. Concentration dependence of block was determined by exposing each well of cells in duplicate rows of a 96 well plate to a serial dilution of test compound. The concentration series usually started at 10 μM with a three-fold serial decrement in concentration. The magnitude of the capsaicin response was determined by measuring the change in fluo3 fluorescence before and 100 seconds after the addition of the agonist. Data were analyzed using a non-linear regression program (Origin; OriginLab, MA). IC50 values shown are the average (mean) of the results obtained.
The assay was performed as described above, using HEK293 cells transfected with rat TRPV1 (rTRPV1/HEK293). […] IC50 values shown are the average (mean) of the results obtained.
Usually IC50 stands for the concentration that gives 50% inhibition. Turning to `N#Cc1cccnc1N1CCc2ncnc(Nc3ccc(C(F)(F)F)cc3)c2CC1` [Example 293, 2-(4-{[4-(Trifluoromethyl)phenyl]amino}-5,6,8,9-tetrahydro-7H-pyrimido[4,5-d]azepin-7-yl)pyridine-3-carbonitrile], the IC50 amounted to 3.49 µM.
The figure for `NC(=O)c1cccnc1N1CCc2ncnc(Nc3ccc(C(F)(F)F)cc3)c2CC1` [Example 294, 2-(4-{[4-(Trifluoromethyl)phenyl]amino}-5,6,8,9-tetrahydro-7H-pyrimido[4,5-d]azepin-7-yl)pyridine-3-carboxamide trifluoroacetic acid salt] is 2.94 µM; for `Fc1cccnc1N1CCc2ncnc(Nc3ccc(C(F)(F)F)cc3)c2CC1` [Example 295, 7-(3-Fluoropyridin-2-yl)-N-[4-(trifluoromethyl)phenyl]-6,7,8,9-tetrahydro-5H-pyrimido[4,5-d]azepin-4-amine] it is 10.4 µM.
For `CCS(=O)(=O)c1cccnc1N1CCc2nc(C(C)C)nc(Nc3ccc(C(C)(C)C)cc3)c2CC1` [Example 296, N-[4-(1,1-Dimethylethyl)phenyl]-7-[3-(ethylsulfonyl)pyridin-2-yl]-2-(1-methylethyl)-6,7,8,9-tetrahydro-5H-pyrimido[4,5-d]azepin-4-amine] the value was 0.12 µM; for `CCS(=O)(=O)c1cccnc1N1CCc2nc(N3CCCCC3)nc(Nc3ccc(C(F)(F)F)cc3)c2CC1` [Example 297, 7-[3-(Ethylsulfonyl)pyridin-2-yl]-2-piperidin-1-yl-N-[4-(trifluoromethyl)phenyl]-6,7,8,9-tetrahydro-5H-pyrimido[4,5-d]azepin-4-amine], 1.08 µM.
As to `O=S(=O)(NC1CC1)c1cccnc1N1CCc2nc(N3CCCCC3)nc(Nc3ccc(C(F)(F)F)cc3)c2CC1` [Example 299, N-Cyclopropyl-2-(2-piperidin-1-yl-4-{[4-(trifluoromethyl)phenyl]amino}-5,6,8,9-tetrahydro-7H-pyrimido[4,5-d]azepin-7-yl)pyridine-3-sulfonamide], the IC50 came to 3 µM.
The figure for `CC(C)NS(=O)(=O)c1cccnc1N1CCc2nc(N3CCCCC3)nc(Nc3ccc(C(F)(F)F)cc3)c2CC1` [Example 300, N-(1-Methylethyl)-2-(2-piperidin-1-yl-4-{[4-(trifluoromethyl)phenyl]amino}-5,6,8,9-tetrahydro-7H-pyrimido[4,5-d]azepin-7-yl)pyridine-3-sulfonamide] is 2 µM; for `CCS(=O)(=O)c1cccnc1N1CCc2ncnc(Nc3ccc(C(F)(F)F)cc3)c2CC1` [Example 301, 7-[3-(Ethylsulfonyl)pyridin-2-yl]-N-[4-(trifluoromethyl)phenyl]-6,7,8,9-tetrahydro-5H-pyrimido[4,5-d]azepin-4-amine] it is 8.97 µM.
As to `NS(=O)(=O)c1cccnc1N1CCc2ncnc(Nc3ccc(C(F)(F)F)cc3)c2CC1` [Example 302, 2-(4-{[4-(Trifluoromethyl)phenyl]amino}-5,6,7,8,9-tetrahydro-7H-pyrimido[4,5-d]azepin-7-yl)pyridine-3-sulfonamide], the IC50 came out at 9.46 µM.
As to `COC(=O)c1cnc(N2CCc3nc(SC)nc(Nc4ccc(C(F)(F)F)cc4)c3CC2)c(Cl)c1` [Example 303, Methyl 5-chloro-6-[2-(methylsulfanyl)-4-{[4-(trifluoromethyl)phenyl]amino}-5,6,8,9-tetrahydro-7H-pyrimido[4,5-d]azepin-7-yl]pyridine-3-carboxylate], the IC50 was > 6.67 µM.
For `CCS(=O)(=O)c1cccnc1N1CCc2nc(SC)nc(Nc3ccc(C(F)(F)F)cc3)c2CC1` [Example 305, [7-(3-Ethanesulfonyl-pyridin-2-yl)-2-methylsulfanyl-6,7,8,9-tetrahydro-5H-pyrimido[4,5-d]azepin-4-yl]-(4-trifluoromethyl-phenyl)-amine] the value was 1.12 µM.
For `O=S(=O)(c1ccc(Nc2nc(OC3CCCCC3)nc3c2CCN(c2ncccc2C(F)(F)F)CC3)cc1)C(F)(F)F` [Example 308, 2-(Cyclohexyloxy)-7-[3-(trifluoromethyl)pyridin-2-yl]-N-{4-[(trifluoromethyl)sulfonyl]phenyl}-6,7,8,9-tetrahydro-5H-pyrimido[4,5-d]azepin-4-amine], the IC50 is 0.36 µM.
For `Cc1cc(C(F)(F)F)ccc1Nc1nc(OC(C)C2CCCCC2)nc2c1CCN(c1ncccc1C(F)(F)F)CC2` (stereo not drawn) [Example 309, 2-[(1-Cyclohexylethyl)oxy]-N-[2-methyl-4-(trifluoromethyl)phenyl]-7-[3-(trifluoromethyl)pyridin-2-yl]-6,7,8,9-tetrahydro-5H-pyrimido[4,5-d]azepin-4-amine] the value was 1.42 µM; for `Cc1cc(C(F)(F)F)ccc1Nc1nc(OC2CCCC2)nc2c1CCN(c1ncccc1C(F)(F)F)CC2` [Example 310, 2-(Cyclopentyloxy)-N-[2-methyl-4-(trifluoromethyl)phenyl]-7-[3-(trifluoromethyl)pyridin-2-yl]-6,7,8,9-tetrahydro-5H-pyrimido[4,5-d]azepin-4-amine], 0.07 µM.
For the compound `CN1CCC(Oc2nc3c(c(Nc4ccc(C(F)(F)F)cc4)n2)CCN(c2ncccc2C(F)(F)F)CC3)CC1` [Example 311, 2-[(1-Methylpiperidin-4-yl)oxy]-N-[4-(trifluoromethyl)phenyl]-7-[3-(trifluoromethyl)pyridin-2-yl]-6,7,8,9-tetrahydro-5H-pyrimido[4,5-d]azepin-4-amine], the IC50 was > 20 µM.
For `Cc1cc(C(F)(F)F)ccc1Nc1nc(OC2CCOCC2)nc2c1CCN(c1ncccc1C(F)(F)F)CC2` [Example 312, N-[2-Methyl-4-(trifluoromethyl)phenyl]-2-(tetrahydro-2H-pyran-4-yloxy)-7-[3-(trifluoromethyl)pyridin-2-yl]-6,7,8,9-tetrahydro-5H-pyrimido[4,5-d]azepin-4-amine] the value was 0.45 µM; for `Cc1cc(C(F)(F)F)ccc1Nc1nc(OC2CCOC2)nc2c1CCN(c1ncccc1C(F)(F)F)CC2` (stereo not drawn) [Example 313, N-[2-Methyl-4-(trifluoromethyl)phenyl]-2-(tetrahydrofuran-3-yloxy)-7-[3-(trifluoromethyl)pyridin-2-yl]-6,7,8,9-tetrahydro-5H-pyrimido[4,5-d]azepin-4-amine], 0.56 µM.
For the compound `CC(C)N1CCC(Oc2nc3c(c(Nc4ccc(C(F)(F)F)cc4)n2)CCN(c2ncccc2C(F)(F)F)CC3)C1` (stereo not drawn) [Example 315, 2-{[1-(1-Methylethyl)pyrrolidin-3-yl]oxy}-N-[4-(trifluoromethyl)phenyl]-7-[3-(trifluoromethyl)pyridin-2-yl]-6,7,8,9-tetrahydro-5H-pyrimido[4,5-d]azepin-4-amine], the IC50 was determined as 5.52 µM.
Consider `CC(Oc1nc2c(c(Nc3ccc4c(c3)N(C)CCC4)n1)CCN(c1ncccc1C(F)(F)F)CC2)C1CCCCC1` (stereo not drawn) [Example 316, 2-[(1-Cyclohexylethyl)oxy]-N-(1-methyl-1,2,3,4-tetrahydroquinolin-7-yl)-7-[3-(trifluoromethyl)pyridin-2-yl]-6,7,8,9-tetrahydro-5H-pyrimido[4,5-d]azepin-4-amine], for which the IC50 was determined as 1.18 µM.
Regarding `CC(Oc1nc2c(c(Nc3ccc(S(=O)(=O)C(F)(F)F)cc3)n1)CCN(c1ncccc1C(F)(F)F)CC2)C1CC1` (stereo not drawn) [Example 317, 2-[(1-Cyclopropylethyl)oxy]-7-[3-(trifluoromethyl)pyridin-2-yl]-N-{4-[(trifluoromethyl)sulfonyl]phenyl}-6,7,8,9-tetrahydro-5H-pyrimido[4,5-d]azepin-4-amine], the IC50 turned out to be 0.61 µM.
Take `CC(Oc1nc2c(c(Nc3ccc(S(=O)(=O)C(F)(F)F)cc3)n1)CCN(c1ncccc1C(F)(F)F)CC2)C1CCCCC1` (stereo not drawn) [Example 318, 2-[(1-Cyclohexylethyl)oxy]-7-[3-(trifluoromethyl)pyridin-2-yl]-N-{4-[(trifluoromethyl)sulfonyl]phenyl}-6,7,8,9-tetrahydro-5H-pyrimido[4,5-d]azepin-4-amine]: the half-inhibitory concentration (IC50) is > 6.67 µM.
For `O=S(=O)(c1ccc(Nc2nc(OC3CCCC3)nc3c2CCN(c2ncccc2C(F)(F)F)CC3)cc1)C(F)(F)F` [Example 319, 2-(Cyclopentyloxy)-7-[3-(trifluoromethyl)pyridin-2-yl]-N-{4-[(trifluoromethyl)sulfonyl]phenyl}-6,7,8,9-tetrahydro-5H-pyrimido[4,5-d]azepin-4-amine] the value was 0.24 µM; for `CC(Oc1nc2c(c(Nc3ccc(S(=O)(=O)N4CCCC4)cc3)n1)CCN(c1ncccc1C(F)(F)F)CC2)C1CCCCC1` (stereo not drawn) [Example 320, 2-[(1-Cyclohexylethyl)oxy]l-N-[4-(pyrrolidin-1-ylsulfonyl)phenyl]-7-[3-(trifluoromethyl)pyridin-2-yl]-6,7,8,9-tetrahydro-5H-pyrimido[4,5-d]azepin-4-amine], 0.02 µM; for `O=S(=O)(c1ccc(Nc2nc(OC3CCOCC3)nc3c2CCN(c2ncccc2C(F)(F)F)CC3)cc1)C(F)(F)F` [Example 322, 2-(Tetrahydro-2H-pyran-4-yloxy)-7-[3-(trifluoromethyl)pyridin-2-yl]-N-{4-[(trifluoromethyl)sulfonyl]phenyl}-6,7,8,9-tetrahydro-5H-pyrimido[4,5-d]azepin-4-amine], 0.01 µM.
For `CN1CCCc2ccc(Nc3nc(OC4CCOC4)nc4c3CCN(c3ncccc3C(F)(F)F)CC4)cc21` (stereo not drawn) [Example 323, N-(1-Methyl-1,2,3,4-tetrahydroquinolin-7-yl)-2-(tetrahydrofuran-3-yloxy)-7-[3-(trifluoromethyl)pyridin-2-yl]-6,7,8,9-tetrahydro-5H-pyrimido[4,5-d]azepin-4-amine], the IC50 turned out to be 0.67 µM.
`CN1CCCc2ccc(Nc3nc(OC4CCCC4)nc4c3CCN(c3ncccc3C(F)(F)F)CC4)cc21` [Example 324, 2-(Cyclopentyloxy)-N-(1-methyl-1,2,3,4-tetrahydroquinolin-7-yl)-7-[3-(trifluoromethyl)pyridin-2-yl]-6,7,8,9-tetrahydro-5H-pyrimido[4,5-d]azepin-4-amine]: the IC50 stood at 0.1 µM.
For `Cc1cc(C(F)(F)F)ccc1Nc1nc(OC(C)C2CC2)nc2c1CCN(c1ncccc1C(F)(F)F)CC2` (stereo not drawn) [Example 325, 2-[(1-Cyclopropylethyl)oxy]-N-[2-methyl-4-(trifluoromethyl)phenyl]-7-[3-(trifluoromethyl)pyridin-2-yl]-6,7,8,9-tetrahydro-5H-pyrimido[4,5-d]azepin-4-amine] the value was 0.3 µM.
